Reference: patent US10376561B1, “Fasciola hepatica fatty acid binding protein a novel anti-inflammatory molecule” (priority 2015, dated 2019)

What was measured:
[1] = molecular target: T1, human LBP (Homo sapiens, UniProt P18428); test: LPS-binding protein (LBP)/LPS interaction assay (Endoblock LBP ELISA); conditions: Polymyxin-B 100 μM
T1 construct: purchased Hycult Biotech
T1 sequence (P18428 26-481): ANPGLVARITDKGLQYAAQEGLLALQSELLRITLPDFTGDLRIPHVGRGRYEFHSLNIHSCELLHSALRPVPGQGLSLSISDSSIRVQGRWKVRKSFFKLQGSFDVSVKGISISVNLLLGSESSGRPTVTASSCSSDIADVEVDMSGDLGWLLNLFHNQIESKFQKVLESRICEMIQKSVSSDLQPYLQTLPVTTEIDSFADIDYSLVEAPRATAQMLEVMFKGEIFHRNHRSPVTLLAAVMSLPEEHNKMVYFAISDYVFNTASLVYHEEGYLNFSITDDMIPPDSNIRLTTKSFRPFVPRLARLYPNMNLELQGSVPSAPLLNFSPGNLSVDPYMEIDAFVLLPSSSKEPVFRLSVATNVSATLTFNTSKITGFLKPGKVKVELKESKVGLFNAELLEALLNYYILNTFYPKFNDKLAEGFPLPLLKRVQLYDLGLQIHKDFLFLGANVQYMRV
Experimental: The Endoblock LBP ELISA test kit (Hycult Biotech, PA, USA) was used according to the manufacturer's instructions to investigate whether Fh12 disrupts the interaction between LPS and LBP. Briefly, binding of biotinylated LPS to pre-captured human LBP was assessed using streptavidin peroxidase, followed by addition of tetramethylbenzidine. Fh12 (0.05-10 μg/ml) was pre-incubated for 30 min with biotinylated-LPS and added to wells pre-coated with anti-LBP+LBP. PMB (0.2-100 μM), which competes with LBP for binding to LPS, was used as a control for inhibition by pre-incubation with biotinylated-LPS.
To investigate the mechanism through which Fh12 specifically blocks the interaction between LPS and TLR4, we firstly assessed whether Fh12 exposure alters either the interaction of LPS with […] (LBP), or the expression of any TLR4 complex component. To assess whether Fh12 prevents binding of LPS to LBP, we used an LBP-ELISA kit, which detects binding of biotinylated LPS to LBP. PMB, which competes with LBP for binding to LPS, was used as a positive control. A lipid-binding protein assay (Endoblock) was used to investigate whether Fh12 disrupts the interaction between LPS and LBP. Polymyxin-B (100 μM), which is known to compete with LBP for binding to LPS, blocked LBP/LPS binding.

[2] = test system: TLR4; test: NF-κB activation in TLR4-transfected HEK cells (SEAP, A655); type: cell-based, human; conditions: PMB 100 μM; LPS 5 μg/ml
Experimental: To investigate the mechanism of interaction between Fh12 and TLR4 we used Human Embryonic Kidney 293 cells (HEK293, InvivoGen). These cells (HEK293-TLR4) are co-transfected with genes encoding cluster differentiation antigen-14 (CD14), myeloid differentiation protein-2 (MD2), toll-like receptor-4 (TLR4) co-receptor, and a SEAP reporter gene (HEK293-TLR4). Cells were maintained in DMEM supplemented with 4.5 g/L glucose, 10% fetal bovine serum (FBS), 50 U/ml penicillin, 50 μg/ml streptomycin, 100 μg/ml Normocin™ and 2 mM L-glutamine. For all experiments a cell suspension was prepared using HEK-Blue™ Detection medium at 14×10^4 cells/ml. For stimulation experiments, cells were seeded at 2.52×10^4 cells/well in 96-well flat-bottom plates and treated with Fh12 (from 0.62 to 10 μg/ml) or LPS (5 μg/ml), and incubated at 37° C., 5% CO2 for 24 h. In the inhibition experiments, cells were cultured with Fh12 (0.6 to 10 μg/ml) 30 min prior LPS (5 μg/ml) stimulation. […] All readings were done at 655 nm after 24 h of LPS-stimulation. […] The percent of reduction (R %) of the absorbance values was calculated by the formula R (%)=100−[(A−C)×100)/(B−C)], where A is the mean A655 of three replicates obtained when cells were stimulated with Fh12, and B is the mean A665 value obtained when cells were exposed to LPS, and C is the mean A655 of three replicates obtained when cells were stimulated with PBS. […]

In the case of polymyxin-B [PMB], the “LBP/LPS binding, positive control” value [1] is reported as “blocked” and the “NF-κB expression, antagonist control” value [2] is reported as “completely suppressed”.
